Measurements reported in publication PMC7584476, “Safety and efficacy of BAY1436032 in IDH1-mutant AML: phase I study results” (Leukemia, 2020).
Entries after “also recorded” stand apart in the source; their conditions may differ.

Test system: subjects with mIDH1 advanced AML
Assay: Phase I study: safety and tolerability (TEAE, DLT, MTD, ECG)
Type: in vivo
Procedure: This study was an open-label, nonrandomized, multicenter phase I trial. Subjects were screened at 13 hospital sites in 2 countries (USA and Germany). The study was to consist of dose-escalation followed by dose-expansion. The MTD identified in dose-escalation was to be used in the dose-expansion. If MTD was not reached in dose-escalation, a dose for the expansion would be selected based on available PK, pharmacodynamic, safety, and efficacy data. BAY1436032 was administered twice-daily (BID) in continuous 28-day cycles. In dose-escalation, up to 9 evaluable subjects could be enrolled per cohort, with a minimum of 3 dose-limiting toxicity (DLT)-free evaluable subjects required prior to escalating to the next highest dose. Bayesian dose-DLT modeling was performed to help guide dosing decisions.
DLTs were differentially defined for nonhematopoietic versus hematopoietic toxicities. Nonhematopoietic toxicities of ≥grade 3 occurring during the first cycle of treatment were to be considered DLTs with the following exceptions: (1) Alopecia and nausea controlled by medical management; (2) Tumor lysis syndrome if successfully managed clinically and resolved within 7 days without any end-organ damage; (3) Differentiation syndrome (DS) if successfully managed clinically and resolved within 7 days without any end-organ damage; (4) Asymptomatic ≥grade 3 electrolyte abnormalities not considered clinically significant by the investigator. […] For certain toxicities such as laboratory assessments without a clear clinical correlate, a discussion between the investigator and the sponsor determined whether the adverse event (AE) should be assessed as a DLT.
DLTs identified during the first cycle of treatment were used to guide dose-escalation decisions and to determine the MTD, and if safety issues appeared in subsequent cycles they were also to be considered. Hydroxyurea was permitted during the first cycle if white blood cell (WBC) exceeded 20 × 10^9/L and was also permitted for treatment of DS.
Safety and tolerability were evaluated by analysis of adverse events, physical examinations, vital signs, ECOG performance status, and various laboratory assessments. For safety monitoring, subjects were scheduled for clinic visits every week for the initial three cycles of treatment, after which time visits could be reduced to every-other-week with investigator and sponsor agreement. Cardiac function was assessed with triplicate 12-lead electrocardiograms (ECG) at screening, C1-D1, C1-D2, C1-D15, D1 of every subsequent cycle, and at treatment end. […] AEs are presented by the Medical Dictionary for Regulatory Activities (MedDRA) v21.1.

C[C@H]1C[C@@H](n2c(Nc3ccc(OC(F)(F)F)cc3)nc3cc(CCC(=O)O)ccc32)CC(C)(C)C1 [BAY1436032]
TEAE Sepsis Grade 5 (1500 mg BID, n=9): 1
TEAE Sinus tachycardia Grade 1 (1500 mg BID, n=9): 1
TEAE Thrombocytopenia Grade 4 (1500 mg BID, n=9): 2
TEAE Vomiting Grade 1 (1500 mg BID, n=9): 3
TEAE Weight decreased Grade 1 (1500 mg BID, n=9): 0
TEAE Weight decreased Grade 2 (1500 mg BID, n=9): 0
TEAE Weight decreased Grade 3 (1500 mg BID, n=9): 1
Deaths during treatment or within 30 days of discontinuation (27 treated): Six of 27
Related TEAE DS grade 3 (27 treated): single subject
Related TEAE Fatigue Grade 3 (27 treated): single subject
Related TEAE amylase increase grade 3 (27 treated): single subject
Related TEAE anemia grade 4 (27 treated): single subject
Related TEAE decreased WBC count grade 3 (27 treated): single subject
Related TEAE decreased neutrophil count grade 4 (27 treated): single subject
Related TEAE decreased platelet count grade 4 (27 treated): single subject
Related TEAE febrile neutropenia grade 3 (27 treated): single subject
Related TEAE hyponatremia grade 3 (27 treated): single subject
Related TEAE ileus grade 4 (27 treated): single subject
Related TEAE lung infiltration grade 3 (27 treated): single subject
Related TEAE peripheral edema grade 3 (27 treated): single subject
Related TEAE pneumonitis grade 3 (27 treated): single subject
Related TEAE sepsis grade 4 (27 treated): single subject
Subjects with DS or symptoms associated with DS (27 treated): 19%
Subjects with at least 1 TEAE of any grade related to BAY1436032 (27 treated): Seventeen of 27
Subjects with at least 1 TEAE of ≥grade 3 related to BAY1436032 (27 treated): Seven of 27
Subjects with at least 1 TEAE ≥ grade 3 irrespective of relationship (27 treated): Twenty-four
Maximum tolerated dose (300 to 1500 mg BID): not identified; also recorded: No MTD was identified
Related TEAE Decreased appetite Grade 1 (Total, n=27): 1 (4) n (%)
Related TEAE Decreased appetite Grade 2 (Total, n=27): 1 (4) n (%)
Related TEAE Diarrhea Grade 2 (Total, n=27): 2 (7) n (%)
Related TEAE Differentiation syndrome Grade 2 (Total, n=27): 1 (4) n (%)
Related TEAE Differentiation syndrome Grade 3 (Total, n=27): 1 (4) n (%)
Related TEAE Dyspnea Grade 1 (Total, n=27): 2 (7) n (%)
Related TEAE Dyspnea Grade 2 (Total, n=27): 1 (4) n (%)
Related TEAE Fatigue Grade 1 (Total, n=27): 1 (4) n (%)
Related TEAE Fatigue Grade 2 (Total, n=27): 2 (7) n (%)
Related TEAE Fatigue Grade 3 (Total, n=27): 1 (4) n (%)
Related TEAE Hypomagnesaemia Grade 1 (Total, n=27): 2 (7) n (%)
Related TEAE Nausea Grade 1 (Total, n=27): 4 (15) n (%)
Related TEAE Nausea Grade 2 (Total, n=27): 1 (4) n (%)
Related TEAE Sinus tachycardia Grade 1 (Total, n=27): 2 (7) n (%)
Related TEAE Vomiting Grade 1 (Total, n=27): 4 (15) n (%)
TEAE Abdominal pain upper Grade 1 (Total, n=27): 2 (7) n (%)
TEAE Abdominal pain upper Grade 2 (Total, n=27): 1 (4) n (%)
TEAE Acute kidney injury Grade 1 (Total, n=27): 1 (4) n (%)
TEAE Acute kidney injury Grade 2 (Total, n=27): 1 (4) n (%)
TEAE Acute kidney injury Grade 3 (Total, n=27): 1 (4) n (%)
TEAE Anaemia Grade 3 (Total, n=27): 4 (15) n (%)
TEAE Anaemia Grade 4 (Total, n=27): 1 (4) n (%)
TEAE Anxiety Grade 1 (Total, n=27): 2 (7) n (%)
TEAE Anxiety Grade 2 (Total, n=27): 1 (4) n (%)
TEAE Arthralgia Grade 1 (Total, n=27): 1 (4) n (%)
TEAE Arthralgia Grade 2 (Total, n=27): 2 (7) n (%)
TEAE Constipation Grade 1 (Total, n=27): 4 (15) n (%)
TEAE Constipation Grade 2 (Total, n=27): 1 (4) n (%)
TEAE Contusion Grade 1 (Total, n=27): 3 (11) n (%)
TEAE Contusion Grade 2 (Total, n=27): 1 (4) n (%)
TEAE Cough Grade 1 (Total, n=27): 3 (11) n (%)
TEAE Cough Grade 2 (Total, n=27): 2 (7) n (%)
TEAE Decreased appetite Grade 1 (Total, n=27): 5 (19) n (%)
TEAE Decreased appetite Grade 2 (Total, n=27): 3 (11) n (%)
TEAE Decreased appetite Grade 3 (Total, n=27): 1 (4) n (%)
TEAE Diarrhea Grade 1 (Total, n=27): 7 (26) n (%)
TEAE Diarrhea Grade 2 (Total, n=27): 3 (11) n (%)
TEAE Dry skin Grade 1 (Total, n=27): 5 (19) n (%)
TEAE Dyspnoea Grade 1 (Total, n=27): 4 (15) n (%)
TEAE Dyspnoea Grade 2 (Total, n=27): 2 (7) n (%)
TEAE Dyspnoea Grade 3 (Total, n=27): 3 (11) n (%)
TEAE Epistaxis Grade 1 (Total, n=27): 3 (11) n (%)
TEAE Epistaxis Grade 2 (Total, n=27): 2 (7) n (%)
TEAE Epistaxis Grade 3 (Total, n=27): 1 (4) n (%)
TEAE Fall Grade 1 (Total, n=27): 4 (15) n (%)
TEAE Fatigue Grade 1 (Total, n=27): 4 (15) n (%)
TEAE Fatigue Grade 2 (Total, n=27): 4 (15) n (%)
TEAE Fatigue Grade 3 (Total, n=27): 3 (11) n (%)
TEAE Febrile neutropenia Grade 3 (Total, n=27): 7 (26) n (%)
TEAE General physical health deterioration Grade 3 (Total, n=27): 2 (7) n (%)
TEAE General physical health deterioration Grade 5 (Total, n=27): 1 (4) n (%)
TEAE Gingivitis Grade 1 (Total, n=27): 3 (11) n (%)
TEAE Haematuria Grade 1 (Total, n=27): 2 (7) n (%)
TEAE Haematuria Grade 2 (Total, n=27): 1 (4) n (%)
TEAE Haematuria Grade 3 (Total, n=27): 1 (4) n (%)
TEAE Headache Grade 1 (Total, n=27): 1 (4) n (%)
TEAE Headache Grade 2 (Total, n=27): 2 (7) n (%)
TEAE Headache Grade 3 (Total, n=27): 1 (4) n (%)
TEAE Hyperkalaemia Grade 1 (Total, n=27): 2 (7) n (%)
TEAE Hyperkalaemia Grade 4 (Total, n=27): 1 (4) n (%)
TEAE Hypertension Grade 2 (Total, n=27): 2 (7) n (%)
TEAE Hypertension Grade 3 (Total, n=27): 1 (4) n (%)
TEAE Hyperuricaemia Grade 1 (Total, n=27): 4 (15) n (%)
TEAE Hyperuricaemia Grade 3 (Total, n=27): 1 (4) n (%)
TEAE Hypokalaemia Grade 1 (Total, n=27): 3 (11) n (%)
TEAE Hypokalaemia Grade 2 (Total, n=27): 1 (4) n (%)
TEAE Hypokalaemia Grade 3 (Total, n=27): 2 (7) n (%)
TEAE Hyponatraemia Grade 1 (Total, n=27): 2 (7) n (%)
TEAE Hyponatraemia Grade 3 (Total, n=27): 1 (4) n (%)
TEAE Hypophosphataemia Grade 1 (Total, n=27): 1 (4) n (%)
TEAE Hypophosphataemia Grade 2 (Total, n=27): 2 (7) n (%)
TEAE Leukocytosis Grade 2 (Total, n=27): 2 (7) n (%)
TEAE Leukocytosis Grade 3 (Total, n=27): 2 (7) n (%)
TEAE Lung infection Grade 3 (Total, n=27): 3 (11) n (%)
TEAE Lung infection Grade 5 (Total, n=27): 1 (4) n (%)
TEAE Nausea Grade 1 (Total, n=27): 5 (19) n (%)
TEAE Nausea Grade 2 (Total, n=27): 2 (7) n (%)
TEAE Nausea Grade 3 (Total, n=27): 2 (7) n (%)
TEAE Oedema peripheral Grade 1 (Total, n=27): 6 (22) n (%)
TEAE Oedema peripheral Grade 3 (Total, n=27): 2 (7) n (%)
TEAE Pain in extremity Grade 1 (Total, n=27): 2 (7) n (%)
TEAE Pain in extremity Grade 2 (Total, n=27): 1 (4) n (%)
TEAE Pneumonia Grade 1 (Total, n=27): 1 (4) n (%)
TEAE Pneumonia Grade 2 (Total, n=27): 2 (7) n (%)
TEAE Pneumonia Grade 3 (Total, n=27): 3 (11) n (%)
TEAE Pneumonia fungal Grade 2 (Total, n=27): 1 (4) n (%)
TEAE Pneumonia fungal Grade 3 (Total, n=27): 1 (4) n (%)
TEAE Pneumonia fungal Grade 4 (Total, n=27): 1 (4) n (%)
TEAE Productive cough Grade 1 (Total, n=27): 2 (7) n (%)
TEAE Productive cough Grade 2 (Total, n=27): 1 (4) n (%)
TEAE Pyrexia Grade 1 (Total, n=27): 4 (15) n (%)
TEAE Pyrexia Grade 2 (Total, n=27): 1 (4) n (%)
TEAE Pyrexia Grade 3 (Total, n=27): 3 (11) n (%)
TEAE Rash Grade 1 (Total, n=27): 1 (4) n (%)
TEAE Rash Grade 2 (Total, n=27): 3 (11) n (%)
TEAE Sepsis Grade 4 (Total, n=27): 3 (11) n (%)
TEAE Sepsis Grade 5 (Total, n=27): 2 (7) n (%)
TEAE Sinus tachycardia Grade 1 (Total, n=27): 3 (11) n (%)
TEAE Thrombocytopenia Grade 4 (Total, n=27): 3 (11) n (%)
TEAE Vomiting Grade 1 (Total, n=27): 7 (26) n (%)
TEAE Weight decreased Grade 1 (Total, n=27): 3 (11) n (%)
TEAE Weight decreased Grade 2 (Total, n=27): 3 (11) n (%)
TEAE Weight decreased Grade 3 (Total, n=27): 1 (4) n (%)
Subjects with DS or symptoms associated with DS (count of 27 treated): Five of 27
Dose-limiting toxicities (grade 4 ileus, subject 21, cohort 4): single DLT
Clinically significant ECG changes such as QTc prolongation related to treatment (in vivo): no clinically significant ECG
Deaths attributed to study drug (in vivo): none
Episodes of ≥grade 3 QT prolongation (in vivo): no episodes
